Measurements taken from patent US20110311601A1, “ANTIMICROBIAL MEDICAL DEVICES” (priority 2010, published 2011).
Where no end group is shown, it is not given here.

Key:
Test in all cases: micro-dilution assay (MBC, LD90)
Format in all cases: cell-based
[1] = test system: E. coli (ESBI 4) Va 10866/02 (wild-type)
Method: (§1) The anti-bacterial activity of hβD2 was tested by a micro-dilution assay. Bacteria and fungi were streaked from a glycerol stock onto a Brain Heart Infusion (BHI) agar plate (3.7% w/v BHI Bouillon, 1.5% w/v Agar), grown overnight at 37° C. and 30° C., respectively and subsequently used to inoculate 40 ml of 3.7% w/v BHI Bouillon without any antibiotics in 100 ml flasks. Fresh cells were harvested by centrifugation at 16000 rpm for 10 min and washed twice with 10 mM sodium phosphate buffer, pH 7.2. The optical density was adjusted to 10^4 cells/ml. For anti-bacterial testing hβD2 was incubated in one well of a microtiter plate containing 100 μl of the bacterial suspension. Therefore, ten microlitres of hβD2 solution with a range of final concentrations tested from 0.0125 up to and including 100 mg/l was added to the bacterial suspension and incubated at 37° C. and 30° C., respectively for 2 h before colony forming units were determined. Colony forming units (CFU) were determined after plating 100 μl of a 1:100 dilution of the bacterial suspension on petri dishes with BHI medium and incubating them overnight at 37° C. For every group of the hβD2 added samples and the controls, 5 independent anti-bacterial assays were performed. A control (NC) of bacterial growth was examined for every independent assay. The number of CFU on the control (consisting of a single petri dish) was set to 0% bactericidal activity. The reduction in the CFU resulting from the anti-bacterial activity of hβD2 was related to the absolute CFU of the control within every independent assay. This value, given as a percentage of the bacterial “killing” activity, was used to describe the antibacterial activity. This kind of normalisation of the antibacterial data was performed for every experimental group.
(§2) The antibacterial activity of hβD2 were given either as minimum bactericidal concentration (MBC), i.e., the minimum concentration of hβD2 in μg/ml which is required to kill 99.9% of the bacteria or fungi or as lethal dose (LD90), i.e., the concentration of hβD2 in μg/ml which is lethal for 90% of bacteria or fungi.

[2] = test system: Cryptococcus neoformans ATCC 62066
Method: as §1, §2

[3] = test system: Pseudomonas fluorescens NCTC 10038
Method: as §1, §2

[4] = test system: Candida glabrata BK 9570/02 (wild-type)
Method: as §1, §2

[5] = test system: Acinetobacter baumannii ATCC 19606
Method: as §1, §2

[6] = test system: Klebsiella pneumoniae ATCC 13883
Method: as §1, §2

[7] = test system: Candida tropicalis ATCC 750
Method: as §1, §2

[8] = test system: Pseudomonas aeruginosa CF 453 Va mr (wild-type)
Method: as §1, §2

[9] = test system: Candida glabrata ATCC 90030
Method: as §1, §2

[10] = test system: Pseudomonas aeruginosa ATCC 10145
Method: as §1, §2

[11] = test system: Acinetobacter lwoffii ATCC 15309
Method: as §1, §2

[12] = test system: Enterobacter aerogenes Va 12738/03 (wild-type)
Method: as §1, §2

[13] = test system: Citrobacter freundii NCTC 9750
Method: as §1, §2

[14] = test system: Corynebacterium amycolatum RV A2/97
Method: as §1, §2

[15] = test system: Stenotrophomonas maltophilia ATCC 10257
Method: as §1, §2

[16] = test system: Providencia rettgeri NCTC 7475
Method: as §1, §2

[17] = test system: Prevotella intermedia ATCC 25611
Method: as §1, §2

[18] = test system: Pseudomonas aeruginosa CF 479 mr (wild-type)
Method: as §1, §2

[19] = test system: Acinetobacter johnsonii ATCC 17909
Method: as §1, §2

[20] = test system: Acinetobacter Genosp. 10 ATCC 17924
Method: as §1, §2

[21] = test system: Acinetobacter haemolyticus ATCC 17906
Method: as §1, §2

[22] = test system: Burkholderia cepacia ATCC 25416
Method: as §1, §2

[23] = test system: Proteus mirabilis UR 1792/03 (wild-type)
Method: as §1, §2

[24] = test system: Staphylococcus aureus ATCC 43300 (MRSA)
Method: as §1, §2

[25] = test system: Fusobacterium nucleatum ATCC 10953
Method: as §1, §2

[26] = test system: Corynebacterium pseudodiphtheriae RV A1/95
Method: as §1, §2

human β-defensin-2 (GIGDPVTCLKSGAICHPVFCPRRYKQIGTCGLPGTKCCKKP; ends and bridges not checked; cysteine pairing not given here) [hβD2, recombinant hβD2]
0.39 µg/mL: LD 90 = μg/ml 90% killing [11] | LD 90 = μg/ml 90% killing [19] | LD 90 = μg/ml 90% killing [20] | LD 90 = μg/ml 90% killing [21]
1.56 µg/mL: LD 90 = μg/ml 90% killing [7] | MBC = μg/ml 99.9% killing [19] | MBC = μg/ml 99.9% killing [20] | MBC = μg/ml 99.9% killing [21]
100 µg/mL: LD 90 = μg/ml 90% killing [16] | LD 90 = μg/ml 90% killing [22] | LD 90 = μg/ml 90% killing [24]
3.125 µg/mL: LD 90 = μg/ml 90% killing [1] | LD 90 = μg/ml 90% killing [17] | MBC = μg/ml 99.9% killing [17] | LD 90 = μg/ml 90% killing [23] | LD 90 = μg/ml 90% killing [25] | MBC = μg/ml 99.9% killing [25]
>100 µg/mL: LD 90 = μg/ml 90% killing [4] | MBC = μg/ml 99.9% killing [4] | MBC = μg/ml 99.9% killing [9] | MBC = μg/ml 99.9% killing [16] | MBC = μg/ml 99.9% killing [22] | MBC = μg/ml 99.9% killing [24]
50 µg/mL: LD 90 = μg/ml 90% killing [9] | MBC = μg/ml 99.9% killing [13]
12.5 µg/mL: MBC = μg/ml 99.9% killing [1] | MBC = μg/ml 99.9% killing [2] | LD 90 = μg/ml 90% killing [5] | LD 90 = μg/ml 90% killing [6] | LD 90 = μg/ml 90% killing [8] | MBC = μg/ml 99.9% killing [10] | LD 90 = μg/ml 90% killing [13] | LD 90 = μg/ml 90% killing [18] | MBC = μg/ml 99.9% killing [23] | LD 90 = μg/ml 90% killing [26] | MBC = μg/ml 99.9% killing [26]
25 µg/mL: MBC = μg/ml 99.9% killing [3] | MBC = μg/ml 99.9% killing [5] | MBC = μg/ml 99.9% killing [6] | MBC = μg/ml 99.9% killing [7] | MBC = μg/ml 99.9% killing [8] | MBC = μg/ml 99.9% killing [12] | MBC = μg/ml 99.9% killing [14] | MBC = μg/ml 99.9% killing [15] | MBC = μg/ml 99.9% killing [18]
6.25 µg/mL: LD 90 = μg/ml 90% killing [3] | LD 90 = μg/ml 90% killing [10] | LD 90 = μg/ml 90% killing [12] | LD 90 = μg/ml 90% killing [14] | LD 90 = μg/ml 90% killing [15]
0.78 µg/mL: LD 90 = μg/ml 90% killing [2] | MBC = μg/ml 99.9% killing [11]
